Measurements reported in patent publication US20080175927A1, “METHOD FOR PREVENTING PLANT DISEASES” (priority 2005, published 2008).
Marks after values point to notes of the source that are not given here.

Legend:
glomellera cingurata = experiment: Paper disk method, growth inhibition by TLC-purified berberine and derivatives; format: cell-based; design: key: ++: strong inhibition; +: moderate inhibition; −: no inhibition; settings: purified from TLC
Source text: (§1) To confirm antimicrobial activity of berberine and derivative thereof, we collected TLC bands of berberine and derivative thereof and investigated antimicrobial activity of berberine and derivative thereof against known plant pathogens using paper disk method (Ericsson, H., Hogman, C & Wickman. K. 1954, Scandinavian Journal of Clinical Laboratory Investigation 6, Suppl. 11:21-26). […] Therefore, the result of the aforementioned HPLC analysis, ^1H NMR analysis and antimicrobial activity, the active antimicrobial compound exisisting in the extract of Coptis Rhizoma, Phellodendron genus plant, Sanguniaria canadensis, and Chelidonuum majus var. asiaticum was identified as berberine or derivatives thereof.

damping-off of cucumber = experiment: as above; format: cell-based, Pythium ultimum; design: key: ++: strong inhibition; +: moderate inhibition; −: no inhibition; settings: purified from TLC
Source text: as §1

[1] = system: gray mold rot of strawberry; experiment: as above; format: cell-based, Botrytis cinerea; design: key: ++: strong inhibition; +: moderate inhibition; −: no inhibition; settings: purified from TLC
Source text: as §1

[2] = system: Sphaerotheca aphanis var. aphanis; experiment: Preventive test against strawberry powdery mildew, disease incidence rate; format: in vivo; settings: for PR (prevention rate): 7 days after treatment; for DIR B (disease incident rate 7 days after treatment), I: replicate I; for DIR B (disease incident rate 7 days after treatment), II: replicate II; for DIR B (disease incident rate 7 days after treatment), III: replicate III
Method: To measure prevention effect against powdery mildew of extract of Coptis Rhizoma, Phellodendron amurense, Sanguniaria canadensis and Chelidonuum majus var. asiaticum and berberine and its derivative, we performed a preventive test agaist strawberry powdery mildew resulted from infection of Sphaerotheca aphanis var. aphanis using the standard extract obtained by Example 1 or berberine and derivative thereof. The above extract (30 mL) obtained from 10 g of fresh plant materials was dissolved in 200 μg/ml of Tween 20 solution. Final concentration of berberine and derivatives thereof was 400 μg/ml. Negative control was prepared by adding 250 μg/ml of Tween 20 in distilled water. As a positive control reagent, 30% solution of Rifzol wettable powder (Rifzol W P, Aventis Corp Science, Korea) is used and the Rifzol solution was diluted 1:4000 and treated with amount of 75 μg/ml which is common packing concentration.
In house condition of sandy-loamy soil, disease incidence rate was determined 7 days after treatment of the above mentioned reagents compared to one of non-treatment control and the test was repeated 3 times by randomized Block Design.
Before treatment of the reagents, the disease incidence rate of strawberry powdery mildew was 34.1%. The disease incidence rate is defined as percentage of disease developed plants among total investigated plants.
We investigated preventive effects of standard forms of berberine chloride, berberine iodide and berberine bromide and the standard extract obtained by Example 1 against strawberry powdery mildew at various concentrations according to the method of Example 4. […] When the freeze-dried standard extract obtained by Example 1 was used at concentration of at least 1 μg/ml or preferably 10 μg/ml, it prevented strawberry powdery mildew resulted from an infection of Sphaerotheca aphanis var. aphanis. From the above effect, the present inventors confirmed that the standard extract could substitute for synthetic chemical pesticides.

[3] = extracts 30 mL from 10 g plant, berberine salts 400 μg/ml, Rifzol 75 μg/ml
[4] = mean of I-III, extracts 30 mL from 10 g plant, berberine salts 400 μg/ml, Rifzol 75 μg/ml, negative control 19.0

Row | SMILES | Growth inhibition, glomellera cingurata (glomellera cingurata) | Growth inhibition, damping-off of cucumber (damping-off of cucumber) | Growth inhibition, gray mold rot of strawberry [1] | PR (prevention rate) ([2]; 1 μg/ml) [%] | DIR B (disease incident rate 7 days after treatment), MV (mean value) ([2]; 1 μg/ml, control 35.3) [%] | DIR B (disease incident rate 7 days after treatment), I ([2]; 1 μg/ml) [%] | DIR B (disease incident rate 7 days after treatment), II ([2]; 1 μg/ml) [%] | DIR B (disease incident rate 7 days after treatment), III ([2]; 1 μg/ml) [%] | PR (prevention rate) ([2]; 10 μg/ml) [%] | DIR B (disease incident rate 7 days after treatment), MV (mean value) ([2]; 10 μg/ml, control 35.3) [%] | DIR B (disease incident rate 7 days after treatment), I ([2]; 10 μg/ml) [%] | DIR B (disease incident rate 7 days after treatment), II ([2]; 10 μg/ml) [%] | DIR B (disease incident rate 7 days after treatment), III ([2]; 10 μg/ml) [%] | PR (prevention rate) ([2]; 100 μg/ml) [%] | DIR B (disease incident rate 7 days after treatment), MV (mean value) ([2]; 100 μg/ml, control 35.3) [%] | DIR B (disease incident rate 7 days after treatment), I ([2]; 100 μg/ml) [%] | DIR B (disease incident rate 7 days after treatment), II ([2]; 100 μg/ml) [%] | DIR B (disease incident rate 7 days after treatment), III ([2]; 100 μg/ml) [%] | PR (prevention rate) ([2]; 300 μg/ml) [%] | DIR B (disease incident rate 7 days after treatment), MV (mean value) ([2]; 300 μg/ml, control 35.3) [%] | other results
1 | COc1ccc2cc3[n+](cc2c1OC)CCc1cc2c(cc1-3)OCO2.[Br-] [berberine bromine, berberine bromide] | + | + | + | 12.5 | 30.9 | 29.6 | 27.6 | 35.4 | 47.3 | 18.6 | 13.5 | 17.6 | 24.8 | 61.5 | 13.6 | 13.2 | 11.7 | 15.8 | 71.7 | 10.0 | DIR B (disease incident rate 7 days after treatment), I ([2]; 300 μg/ml): 8.9%; DIR B (disease incident rate 7 days after treatment), II ([2]; 300 μg/ml): 12.9%; DIR B (disease incident rate 7 days after treatment), III ([2]; 300 μg/ml): 8.3%; PR (prevention rate) ([2]; 1000 μg/ml): 78.8%; DIR B (disease incident rate 7 days after treatment), MV (mean value) ([2]; 1000 μg/ml, control 35.3): 7.5%; DIR B (disease incident rate 7 days after treatment), I ([2]; 1000 μg/ml): 5.9%; DIR B (disease incident rate 7 days after treatment), II ([2]; 1000 μg/ml): 9.4%; DIR B (disease incident rate 7 days after treatment), III ([2]; 1000 μg/ml): 7.2%; PR (prevention rate) [2, 3]: 66.8%; DIR B (disease incident rate 7 days after treatment), MV (mean value) [2, 4]: 6.3%; DIR B (disease incident rate 7 days after treatment), I [2, 3]: 5.2%; DIR B (disease incident rate 7 days after treatment), II [2, 3]: 6.1%; DIR B (disease incident rate 7 days after treatment), III [2, 3]: 6.1%
2 | COc1ccc2cc3[n+](cc2c1OC)CCc1cc2c(cc1-3)OCO2 [berberine chloride] | ++ | ++ | + | 12.2 | 31.0 | 30.2 | 30.8 | 32.1 | 38.2 | 21.8 | 23.4 | 22.1 | 19.9 | 73.7 | 9.3 | 8.2 | 7.7 | 12.1 | 77.3 | 8.0 | DIR B (disease incident rate 7 days after treatment), I ([2]; 300 μg/ml): 5.2%; DIR B (disease incident rate 7 days after treatment), II ([2]; 300 μg/ml): 8.5%; DIR B (disease incident rate 7 days after treatment), III ([2]; 300 μg/ml): 10.3%; PR (prevention rate) ([2]; 1000 μg/ml): 84.7%; DIR B (disease incident rate 7 days after treatment), MV (mean value) ([2]; 1000 μg/ml, control 35.3): 5.4%; DIR B (disease incident rate 7 days after treatment), I ([2]; 1000 μg/ml): 3.4%; DIR B (disease incident rate 7 days after treatment), II ([2]; 1000 μg/ml): 8.7%; DIR B (disease incident rate 7 days after treatment), III ([2]; 1000 μg/ml): 4.2%; PR (prevention rate) [2, 3]: 69.5^c %; DIR B (disease incident rate 7 days after treatment), MV (mean value) [2, 4]: 5.8%; DIR B (disease incident rate 7 days after treatment), I [2, 3]: 5.9%; DIR B (disease incident rate 7 days after treatment), II [2, 3]: 5.1%; DIR B (disease incident rate 7 days after treatment), III [2, 3]: 5.1%
3 | COc1ccc2cc3[n+](cc2c1OC)CCc1cc2c(cc1-3)OCO2.[I-] [berberine iodide] | + | + | + | 9.9 | 31.8 | 30.2 | 29.5 | 35.8 | 35.4 | 22.8 | 25.8 | 23.1 | 19.6 | 73.1 | 9.5 | 10.2 | 8.9 | 9.3 | 78.8 | 7.5 | DIR B (disease incident rate 7 days after treatment), I ([2]; 300 μg/ml): 6.2%; DIR B (disease incident rate 7 days after treatment), II ([2]; 300 μg/ml): 7.9%; DIR B (disease incident rate 7 days after treatment), III ([2]; 300 μg/ml): 8.4%; PR (prevention rate) ([2]; 1000 μg/ml): 82.2%; DIR B (disease incident rate 7 days after treatment), MV (mean value) ([2]; 1000 μg/ml, control 35.3): 6.3%; DIR B (disease incident rate 7 days after treatment), I ([2]; 1000 μg/ml): 4.3%; DIR B (disease incident rate 7 days after treatment), II ([2]; 1000 μg/ml): 9.3%; DIR B (disease incident rate 7 days after treatment), III ([2]; 1000 μg/ml): 5.2%; PR (prevention rate) [2, 3]: 63.2%; DIR B (disease incident rate 7 days after treatment), MV (mean value) [2, 4]: 7.0%; DIR B (disease incident rate 7 days after treatment), I [2, 3]: 7.1%; DIR B (disease incident rate 7 days after treatment), II [2, 3]: 6.6%; DIR B (disease incident rate 7 days after treatment), III [2, 3]: 6.6%
